Measured values: PMC3584946, “Three-component synthesis of pyrano[2,3-d]-pyrimidine dione derivatives facilitated by sulfonic acid nanoporous silica (SBA-Pr-SO3H) and their docking and urease inhibitory activity” (DARU Journal of Pharmaceutical Sciences, 2013)
Like-named read-outs stand apart in the source and are kept apart here.

Molecular target: Jack bean urease (Canavalia ensiformis, UniProt P07374)
Test: phenol red urease assay, […] nm
Type: biochemical
[1] = 100 mM urea, 10 mM phosphate pH 7.0, 37°C, 30 min, read-out: IC50

Jack bean urease, sequence (P07374 whole entry): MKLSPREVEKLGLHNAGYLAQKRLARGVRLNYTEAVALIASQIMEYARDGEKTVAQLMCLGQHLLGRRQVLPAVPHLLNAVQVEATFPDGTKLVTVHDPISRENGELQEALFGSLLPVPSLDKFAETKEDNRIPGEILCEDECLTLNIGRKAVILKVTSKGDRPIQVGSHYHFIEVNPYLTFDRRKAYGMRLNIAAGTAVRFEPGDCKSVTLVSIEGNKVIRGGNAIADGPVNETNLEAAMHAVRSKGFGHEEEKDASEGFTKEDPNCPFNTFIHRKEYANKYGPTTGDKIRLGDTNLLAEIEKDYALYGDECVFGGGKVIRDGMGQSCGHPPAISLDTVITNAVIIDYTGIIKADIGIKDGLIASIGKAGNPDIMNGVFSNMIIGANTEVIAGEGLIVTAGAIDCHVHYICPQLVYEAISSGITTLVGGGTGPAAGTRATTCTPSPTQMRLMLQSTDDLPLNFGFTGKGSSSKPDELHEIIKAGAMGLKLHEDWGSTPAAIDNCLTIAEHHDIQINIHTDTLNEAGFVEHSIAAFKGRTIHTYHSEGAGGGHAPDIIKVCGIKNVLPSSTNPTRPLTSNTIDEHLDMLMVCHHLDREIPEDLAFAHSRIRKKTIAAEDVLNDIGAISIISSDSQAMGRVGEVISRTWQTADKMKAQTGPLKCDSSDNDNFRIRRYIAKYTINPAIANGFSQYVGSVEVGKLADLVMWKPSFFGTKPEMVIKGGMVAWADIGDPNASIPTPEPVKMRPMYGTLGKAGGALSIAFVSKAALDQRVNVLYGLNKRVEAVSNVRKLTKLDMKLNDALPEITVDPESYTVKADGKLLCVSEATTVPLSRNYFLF

Structure (SMILES)	IC50 [1]	IC50
Cc1cccc(C2C(C#N)=C(N)Oc3[nH]c(=O)[nH]c(=O)c32)c1 (stereo not drawn) [4f, 7-Amino-6-cyano-5-(3-methylphenyl)-5H-pyrano[2,3-d]pyrimidine-2,4(1H,3H)-diones]	41.1 µM	–
COc1cccc(C2C(C#N)=C(N)Oc3[nH]c(=O)[nH]c(=O)c32)c1 (stereo not drawn) [4h, 7-Amino-6-cyano-5-(3-methoxylphenyl)-5H-pyrano[2,3-d]pyrimidine-2,4(1H,3H)-diones]	–	106 µM
N#CC1=C(N)Oc2[nH]c(=O)[nH]c(=O)c2C1c1c(Cl)cccc1Cl (stereo not drawn) [4k, 7-Amino-6-cyano-5-(2,6-dichlorophenyl)-5H-pyrano[2,3-d]pyrimidinone]	41 µM	–
